Measurements published in PubChem BioAssay AID1963866 (Molecular Pharmacology Branch, DTP, NCI, 2024).

Tested on: PDC KRAS tumor spheroids with HUVEC/MSC, viability
Test: Anticancer human tumor 349418-098-R-PDC patient-derived lung adenocarcinoma cell line growth inhibition [KRAS2]
Conditions: for IC50: curve of first compound; for viability, T/C: stronger effect = lower value
Procedure, shortened: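 Combination screen of spheroid viability in tumor-cell co-cultures with endothelial (HUVEC) and mesenchymal stem cell stroma. Each agent was tested in half-log dilutions, topping at clinical Cmax or at 10 microM without a known Cmax.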

[1] = second compound 0.1 µM, first compound 0.0316 µM
[2] = second compound 0.1 µM, first compound 0.1 µM
[3] = second compound 0.316 µM, first compound 0.0316 µM
[4] = second compound 0.316 µM, first compound 0.1 µM
[5] = second compound 1 µM, first compound 0.0316 µM
[6] = second compound 1 µM, first compound 0.1 µM
[7] = second compound 3.16 µM, first compound 0.0316 µM
[8] = second compound 3.16 µM, first compound 0.1 µM
[9] = second compound 10 µM, first compound 0.0316 µM
[10] = second compound 10 µM, first compound 0.1 µM
[11] = second compound 0.1 µM, first compound 0.316 µM
[12] = second compound 0.1 µM, first compound 1 µM
[13] = second compound 0.1 µM, first compound 3.16 µM
[14] = second compound 0.1 µM, first compound 10 µM
[15] = second compound 0.316 µM, first compound 0.316 µM
[16] = second compound 0.316 µM, first compound 1 µM
[17] = second compound 0.316 µM, first compound 3.16 µM
[18] = second compound 0.316 µM, first compound 10 µM
[19] = second compound 1 µM, first compound 0.316 µM
[20] = second compound 1 µM, first compound 1 µM
[21] = second compound 1 µM, first compound 3.16 µM
[22] = second compound 1 µM, first compound 10 µM
[23] = second compound 3.16 µM, first compound 0.316 µM
[24] = second compound 3.16 µM, first compound 1 µM
[25] = second compound 3.16 µM, first compound 3.16 µM
[26] = second compound 3.16 µM, first compound 10 µM
[27] = second compound 10 µM, first compound 0.316 µM
[28] = second compound 10 µM, first compound 1 µM
[29] = second compound 10 µM, first compound 3.16 µM
[30] = second compound 10 µM, first compound 10 µM
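Note: spheroids exposed to compounds for seven days before readout.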

| Structure (SMILES) | IC50 (second compound 0.1 µM) | IC50 (second compound 0.316 µM) | IC50 (second compound 1 µM) | IC50 (second compound 3.16 µM) | IC50 (second compound 10 µM) | viability, T/C [1] | viability, T/C [2] | viability, T/C [3] | viability, T/C [4] | viability, T/C [5] | viability, T/C [6] | viability, T/C [7] | viability, T/C [8] | viability, T/C [9] | viability, T/C [10] | viability, T/C [11] | viability, T/C [12] | viability, T/C [13] | viability, T/C [14] | viability, T/C [15] | other results |
| --- | --- | --- | --- | --- | --- | --- | --- | --- | --- | --- | --- | --- | --- | --- | --- | --- | --- | --- | --- | --- | --- |
| CC(C)n1nc(-c2ccc3oc(N)nc3c2)c2c(N)ncnc21 + COc1cc2nc(C)nc(NC(C)c3cc(N)cc(C(F)(F)F)c3)c2cc1OC1CCOC1 | 1.14 nM | 0.791 nM | 0.969 nM | 1.27 nM | < 0.316 nM | 9.94% | 7.92% | 8.96% | 8.23% | 8.55% | 7.48% | 8.73% | 7.6% | 4.36% | 5.51% |  |  |  |  |  | viability, T/C (second compound 0.1 µM, first compound 0.000316 µM): 118%; viability, T/C (second compound 0.1 µM, first compound 0.001 µM): 54.2%; viability, T/C (second compound 0.1 µM, first compound 0.00316 µM): 16.5%; viability, T/C (second compound 0.1 µM, first compound 0.01 µM): 10.9%; viability, T/C (second compound 0.316 µM, first compound 0.000316 µM): 106%; viability, T/C (second compound 0.316 µM, first compound 0.001 µM): 35.6%; viability, T/C (second compound 0.316 µM, first compound 0.00316 µM): 15.3%; viability, T/C (second compound 0.316 µM, first compound 0.01 µM): 8.46%; viability, T/C (second compound 1 µM, first compound 0.000316 µM): 102%; viability, T/C (second compound 1 µM, first compound 0.001 µM): 48.5%; viability, T/C (second compound 1 µM, first compound 0.00316 µM): 16.2%; viability, T/C (second compound 1 µM, first compound 0.01 µM): 9.11%; viability, T/C (second compound 3.16 µM, first compound 0.000316 µM): 99.7%; viability, T/C (second compound 3.16 µM, first compound 0.001 µM): 58.4%; viability, T/C (second compound 3.16 µM, first compound 0.00316 µM): 18.1%; viability, T/C (second compound 3.16 µM, first compound 0.01 µM): 8.93%; viability, T/C (second compound 10 µM, first compound 0.000316 µM): 34.2%; viability, T/C (second compound 10 µM, first compound 0.001 µM): 11.4%; viability, T/C (second compound 10 µM, first compound 0.00316 µM): 4.75%; viability, T/C (second compound 10 µM, first compound 0.01 µM): 5.13% |
| CC1(C)CCC(CN2CCN(c3ccc(C(=O)NS(=O)(=O)c4ccc(NCC5CCOCC5)c([N+](=O)[O-])c4)c(Oc4cnc5[nH]ccc5c4)c3)CC2)=C(c2ccc(Cl)cc2)C1 + CC1OCC2(CCN(c3cnc(Sc4ccnc(N)c4Cl)c(N)n3)CC2)C1N | 1800 nM | 1730 nM | 1780 nM | 1580 nM | 1250 nM | 105% | 97.1% | 95.4% | 94.4% | 94.9% | 97.9% | 87.4% | 85.5% | 76% | 82.1% | 91.4% | 89.1% | 12.3% | 3.59% | 89.6% | viability, T/C [16]: 84.5%; viability, T/C [17]: 12.2%; viability, T/C [18]: 3.15%; viability, T/C [19]: 88.2%; viability, T/C [20]: 87.1%; viability, T/C [21]: 13.3%; viability, T/C [22]: 3.05%; viability, T/C [23]: 77.9%; viability, T/C [24]: 71.8%; viability, T/C [25]: 17.7%; viability, T/C [26]: 2%; viability, T/C [27]: 63.2%; viability, T/C [28]: 60.8%; viability, T/C [29]: 15.6%; viability, T/C [30]: 0.69% |
| CC1OCC2(CCN(c3cnc(Sc4ccnc(N)c4Cl)c(N)n3)CC2)C1N (stereo not given) + COc1cc2nc(C)nc(NC(C)c3cc(N)cc(C(F)(F)F)c3)c2cc1OC1CCOC1 | > 10000 nM | > 10000 nM | > 10000 nM | > 10000 nM | < 31.6 nM | 101% | 77.2% | 114% | 80.8% | 124% | 99.3% | 93.8% | 77.7% | 42.8% | 29.8% | 54.4% | 97.6% | 85.6% | 62.7% | 54.5% | viability, T/C [16]: 95.3%; viability, T/C [17]: 95.3%; viability, T/C [18]: 77.8%; viability, T/C [19]: 67.7%; viability, T/C [20]: 72.1%; viability, T/C [21]: 80%; viability, T/C [22]: 74.1%; viability, T/C [23]: 46%; viability, T/C [24]: 62.6%; viability, T/C [25]: 86.7%; viability, T/C [26]: 57.1%; viability, T/C [27]: 18.9%; viability, T/C [28]: 24.1%; viability, T/C [29]: 35.3%; viability, T/C [30]: 19.2% |
| O=C(c1cc(Cc2n[nH]c(=O)c3ccccc23)ccc1F)N1CCN(C(=O)C2CC2)CC1 + C=CC(=O)N1CCN(c2nc(=O)n(-c3c(C)ccnc3C(C)C)c3nc(-c4c(O)cccc4F)c(F)cc23)C(C)C1 | 95.8 nM | 350 nM | 1630 nM | 1310 nM | < 31.6 nM | 84.6% | 47.1% | 92.6% | 86.3% | 100% | 92.8% | 68.7% | 67.2% | 42% | 43.9% | 32.3% | 21.4% | 17.5% | 14.8% | 52.2% | viability, T/C [16]: 26.3%; viability, T/C [17]: 30%; viability, T/C [18]: 17.2%; viability, T/C [19]: 83.1%; viability, T/C [20]: 71.2%; viability, T/C [21]: 20.6%; viability, T/C [22]: 20.9%; viability, T/C [23]: 75.8%; viability, T/C [24]: 51.9%; viability, T/C [25]: 33.7%; viability, T/C [26]: 18.3%; viability, T/C [27]: 36.3%; viability, T/C [28]: 27%; viability, T/C [29]: 29.2%; viability, T/C [30]: 14% |
